In series [1] the test system is S. typhimurium. The series can be described thus: Growth curve by turbidity at 660 nm. Type of series: cell-based, Salmonella typhimurium. How it is done:
(§1) (iii) L-serine or D-serine as the amino acid was dissolved in sterilized purified water and added with bacteria solutions (B. subtilis and S. typhimurium) of the same amount and then introduced in test tubes. 1 ml of each solution was inoculated on a 9 ml DM medium (partially modified) so that final serine concentration would be 0.5% (w/v). Turbidity of the medium added with the bacteria solution and serine was measured on 660 nm at 37° C. for 10 hours immediately after the inoculation and then growth curves of B. subtilis and S. typhimurium were formed.
(§2) As a control, turbidity was measured on a medium merely added with sterilized purified water instead of serine.
(§3) (ii) Turbidity was measured on 660 nm for 8 hours immediately after the inoculation and growth curves of S. typhimurium and B. subtilis were formed in substantially the same manner as the above-described (1)-(iii), except that only L-serine or D-serine of 0.5% (w/v), or L-serine or D serine of 0.5% (w/v) in combination with protamine of 0.03% (w/v), each at the final concentration, were added and solutions of S. typhimurium and B. subtilis were used.
(§4) With compounds shown in FIGS. 14, 16 and 18, growth curves of S. typhimurium, B. subtilis and E. coli were formed in substantially the same manner as the above-described (1)-(111), respectively. The results are shown in FIGS. 14, 16 and 18, respectively. For comparison, the compounds were solely used without L-serine and the growth curves of S. typhimurium, B. subtilis and E. coli were formed. The results are shown in FIGS. 15, 17 and 19, respectively.

Series [2] concerns B. subtilis. The experiment in a line: Growth curve by turbidity at 660 nm. Particulars: for proliferation of B. subtilis compared with the control: serine 0.5% (w/v), 37° C., 10 hours, turbidity 660 nm, FIG. 3. Type of series: cell-based, Bacillus subtilis. Here is the method:
as §1, §2, §3
Growth curves of B. subtilis were formed in the same manner as the above-described (4) except that protamine of 0.03% (w/v) was replaced with lysozyme of 0.1% (w/v).
as §4

The subject of series [3] is B. subtilis MF920. The experiment in a line: Survival rate (viable cell count) after addition of amino acids and heat treatment. The class given is cell-based, Bacillus subtilis. Particulars: heated at 80° C. for 10 minutes; for viable cell count compared with sterilized purified water alone: amino acid 1% (w/v), FIG. 5. How it is done:
In the same manner as the above-mentioned (1)-(i), additives of glycine, L-alanine, L-serine, L-lysine monohydrochloride, L-threonine and L-arginine monohydrochloride were dissolved in sterilized purified water, respectively to prepare amino acid solutions of 10% (w/v). Then a bacteria solution (B. subtilis MF920) was added to 1 ml of each of the amino acid solutions so that amino acid concentration in each tube would be 1% (w/v).
The test tubes were heated at 80° C. for 10 minutes and then quenched. Then, 10 fold dilutions of the obtained bacteria solutions were prepared.
0.1 ml of each dilution was inoculated on three dishes and incubated 2 days to count expressed colonies. The survival rate was measured in the same manner as described above.
Change in the bacteria survival rate was examined in the same manner as the above-mentioned (2) except that the concentration of L-serine was varied within 0.01 to 1% (w/v).

The subject of series [4] is E. coli. The experiment in a line: Survival rate of E. coli after addition of L- or D-serine, with or without heat treatment. The class given is cell-based, Escherichia coli. The note with it: serine 0.5% (w/v), FIG. 2. Here is the method:
(i) Glycine, L-alanine, L-serine, L-lysine monohydrochloride, L threonine or L-arginine monohydrochloride was put in test tubes as an additive, respectively, and dissolved in sterilized purified water to prepare amino acid solutions of 10% (w/v). To 1 ml of each of the amino acid solutions 9 ml of the bacteria solution was added so that the concentration of each amino acid would be 1% (w/v).
The test tubes containing these amino acids and the bacteria solution were allowed to stand at room temperature for 10 minutes and 10^4 fold dilutions were obtained from the resulting solutions.
0.1 ml of each dilution was inoculated on three dishes and incubated for 2 days to count the number of expressed colonies as the viable cell count.
In the same manner as described above, a 10^4 fold dilution prepared without adding amino acid was used as a blank and incubated to count expressed colonies as the viable cell count.
As a survival rate, the viable cell count of bacteria added with amino acid with respect to the viable cell count measured in the blank was measured.
(ii) The survival rate of E. coli was measured in the same manner as described above except that L-serine and D-serine of 0.5% (w/v) as the amino acids and an E. coli solution as the bacteria solution were used.

The subject of series [5] is E. coli. The series can be described thus: E. coli survival rate after heat treatment in the presence of casein. The class given is cell-based, Escherichia coli. The note with it: L-serine 1% (w/v), casein 1 to 4% (w/v), heated at 40° C. for 10 minutes; FIG. 11. Here is the method: L-serine of 0% or 1% (w/v), casein of 1 to 4% (w/v) and a 802 growth medium were added in test tubes. The test tubes were heated at 40° C. for 10 minutes and quenched. 10-fold dilutions of the resulting solutions were prepared. 0.1 ml of each of the dilutions was inoculated on three dishes, incubated for one day and expressed colonies were counted to examine change in the E. coli survival rate.

In series [6] the test system is E. coli. The series can be described thus: Growth curve by turbidity at 660 nm. The class given is cell-based, Escherichia coli. Particulars: L-serine 1.5% (w/v) solely, 8 hours; FIG. 7. How it is done: as §1, §2
(i) Turbidity of the medium was measured on 660 nm for 8 hours immediately after the inoculation and the growth curve of E. coli was formed in the same manner as the above-described (1)-(iii) except that L-serine of 1.5% (w/v), or L-serine or D-serine of 1.5% (w/v) and protamine of 0.1% (w/v), each at the final concentration, were added and an E. coli solution was used.
With compounds shown in FIGS. 14, 16 and 18, growth curves of S. typhimurium, B. subtilis and E. coli were formed in substantially the same manner as the above-described (1)-(111), respectively. The results are shown in FIGS. 14, 16 and 18, respectively. […]

Series [7] in a line: Amino acid analysis of L-serine after a heat treatment. The class given is physicochemical. The note with it: for L-serine concentration: nominal 2 nmol/10 μl. Here is the method: L-serine was added in 1% (w/v) to the bacteria solution and to the medium used in the above. The obtained bacteria culture solution and medium were divided in two test tubes, respectively. One of them was allowed to stand at room temperature for 10 minutes and the other was heated at 80° C. for 10 minutes. Both were quenched and diluted so that the L-serine concentration would be 2 nmol/10 μl and amino acid analysis was carried out with an amino acid automatic analyzer.

Series [8] concerns Escherichia coli. Particulars: in the presence of ethanol; cited from earlier work.
Where [9] appears, read: serine 0.5% (w/v) only, 8 hours, FIG. 8.
Where [10] appears, read: serine 0.5% (w/v), 37° C., 10 hours, turbidity 660 nm, FIG. 4.

The source of these data is US6602532B2, “Process of preserving food and food preservative” (F.G.A. Laboratories Flavourence Corporation, priority 2000, dated 2003).

“Also recorded” adds a separate entry of the source.

With `N[C@H](CO)C(=O)O` [D-serine], the “proliferation of S. typhimurium relative to the control” value in series [1] (setting [9]) and in series [1] (setting [10]) was “about 80%” throughout. Further, the “proliferation of B. subtilis relative to the control” value in series [2] (serine 0.5% (w/v) only, 8 hours, FIGS. 9 and 10) is “about 50%”. Moreover, the “proliferation of B. subtilis compared with the control” value in series [2] worked out at 80%.

Regarding `C[C@H](N)C(=O)O` [L-alanine], in series [3], the “viable cell count compared with sterilized purified water alone” value is recorded as “slightly reduced”.

Consider `Cl.N=C(N)NCCC[C@H](N)C(=O)O` [L-arginine, L-arginine monohydrochloride], for which the “viable cell count compared with sterilized purified water alone” value in series [3] was “increase”.

With `Cl.NCCCC[C@H](N)C(=O)O` [L-lysine, L-lysine monohydrochloride], in series [3], the “viable cell count compared with sterilized purified water alone” value was “increase”.

Turning to `N[C@@H](CO)C(=O)O` [L-serine], the “survival rate as a function of L-serine concentration” value in series [3] (L-serine 0.01 to 1% (w/v), FIG. 6) is listed as “the higher the L-serine concentration was, the more the survival rate decreased”. In addition, the “viable cell count compared with sterilized purified water alone” value in series [3] was “remarkably reduced; also recorded: greatest reduction”. The “bacteria proliferation after heat treatment” value in series [4] (heat treatment at 80° C. for 10 minutes) was “further inhibited”. The “bacteria proliferation relative to the blank” value in series [4] (no heat treatment) was “about 30%”. In addition, the “E. coli proliferation in the presence of casein” value in series [5] is on record as “effective inhibition”. The “proliferation of S. typhimurium relative to the control” value in series [1] (setting [9]) and in series [1] (setting [10]) was “about 80%” in each case. For the same molecule, the “proliferation of B. subtilis compared with the control” value in series [2] is given as “about 10%”. For the same molecule, the “proliferation of E. coli relative to the control” value in series [6] is listed as “about 40%”. Moreover, the decomposition by heating entry in series [7] (80° C. for 10 minutes, regardless of the presence of bacteria) is “would not be decomposed”. The L-serine concentration was 2.3 nmol/10 μl in series [7] (bacteria solution heated (80° C., 10 minutes)); 2.3 nmol/10 μl in series [7] (bacteria solution unheated (room temperature 10 minutes)); 2.3 nmol/10 μl in series [7] (medium heated (80° C., 10 minutes)); 2.2 nmol/10 μl in series [7] (medium unheated (room temperature 10 minutes)).

Consider `C[C@@H](O)[C@H](N)C(=O)O` [L-threonine], for which the “viable cell count compared with sterilized purified water alone” value in series [3] is reported as “increase”.

For `NCC(=O)O` [glycine], in series [3], the “viable cell count compared with sterilized purified water alone” value was “slightly reduced”. Besides, in series [8], the “bacteriostasis to Escherichia coli” value is on record as “shows bacteriostasis”.
